From patent publication US7083959B2, “Therapeutic suppression of specific immune responses by administration of oligomeric forms of antigen of controlled chemistry” (The Johns Hopkins University, priority 1983, dated 2006)
Where no end group is shown, it is not given here.

Tests used:
CAF1/J mice = test: Immunogenicity of monomeric and polymerized BSA or OVA without adjuvant, serum ELISA; assay type: in vivo; conditions: for serum anti-BSA IgM response: day 6, injected in saline without adjuvant, FIG. 40; for IgM and IgG anti-protein responses: administered without adjuvant
Experimental: The molecular weight for each fraction was then determined by the use of the Model E analytical ultracentrifuge under equilibrium conditions. During this prolonged series of slow fractionation steps, molecules which were unstable to any of the many steps involved in processing, handling, or storage were fractionated away from the samples, yielding a series of preparations, each of which contained a relatively narrow range of molecular sizes of substantial time stability. These water soluble preparations were then injected into mice intra-peritoneally, without the use of any adjuvant, in order to determine their relative immunogenicity. The level of immune response was determined by measuring serum IgM or IgG antibody levels against BSA or OVA by standard solid state ELISA technique.

anti-104 antibodies = test: Share of anti-104 antibodies directed against 159, direct binding ELISA and competition assay; set-up: species or system mice
From the text: However this peptide can be recognized by B cells since BSA conjugates raise good antibody responses to 159. Furthermore, as mentioned above, a substantial portion of antibodies raised by the 104-conjugates are directed against 159 as indicated both by direct binding in ELISA assay and by competition assay using free 159 to inhibit binding of anti-104 antibodies to 104-gelatin.

[1] = system: Sera obtained from (NZBxNZW) F1 mice; test: Epitope mapping: binding of lupus mouse sera to histone H2B peptides
From the text: This identification process, referred to herein as “epitope mapping”, involves the synthesis of various overlapping peptide fragments which are subsequently analyzed to establish regions of antigenicity. Clearly, the study of the entire H2B structure (125 amino acids) would require a very large amount of peptide synthesis. However, it is known from studies of SLE patients and mice with lupus-like disease that removal of the H2B N-terminal region with trypsin results in a loss of antigenicity (Portanova, J. P., et. al., J. Immunol. 38, 446–457, (1987)). Attention was, therefore, focussed on the synthesis of peptides derived from this region of histone H2B.

## BSA 70-mer: soluble highly polymerized BSA containing 70 BSA monomers, carbodiimide cross-linked (5000 kD)
CAF1/J mice
  serum anti-BSA IgM response: capable of raising IgM antibodies even at very low doses

## N-Ac-Cys-(ε-ACA)-Glu-Ala-His^331-Ala-Glu-Ile-Asn-Glu-Ala-Gly-Arg^339-CONH2 ({Ac-Cys-ε‑ACA}-EAHAEINEAGR-NH2; listed as Mus musculus) [compound 159, represents residues 331–339 of chicken ovalbumin (OVA)]
anti-104 antibodies; 104 arrayed on dextran or BSA
  share of antibody response to 104 attributed to 159: 40–50%
anti-104 antibodies; solution phase competition assays (data not shown)
  share of 104 response competed with soluble 159: up to 40%

## N-Acetyl-Ala-Pro-Lys-Lys-Gly-Ser-Lys-Lys-Ala-Val-Thr-Lys-Ala-Gln-Lys-Cys-CONH2 (Ac-APKKGSKKAVTKAQKC-NH2) [Lupus 4′]
[1]
  binding of sera to peptide: not

## N-Acetyl-Cys-Ala-Pro-Lys-Lys-Gly-Ser-Lys-Lys-Ala-Val-Thr-Lys-Ala-Gln-Lys-CONH2 (Ac-CAPKKGSKKAVTKAQK-NH2) [Lupus 3′]
[1]
  binding of sera to peptide: not

## N-Acetyl-Cys-Lys-Ala-Val-Thr-Lys-Ala-Gln-Lys-Lys-Asp-Gly-Lys-Lys-Arg-Lys-CONH2 (Ac-CKAVTKAQKKDGKKRK-NH2) [Lupus 5′]
[1]
  binding of sera to peptide: not

## Polymeric BSA: BSA polymerized to itself through a water soluble carbodiimide, size fractionated
CAF1/J mice
  IgM and IgG anti-protein responses: considerable

## Pro-Glu-Pro-Ala-Lys-Ser-Ala-Pro-Ala-Pro-Lys-Lys-Gly-Ser-Lys-Cys-CONH2 (PEPAKSAPAPKKGSKC-NH2) [Lupus 2′]
[1]
  binding of sera to peptide: bind strongly

## monomeric BSA: monomeric (68 kD) bovine serum albumin [reference compound]
CAF1/J mice
  serum anti-BSA IgM response: requires substantially higher doses
CAF1/J mice; repeated injections in saline at doses up to 100 μg, FIG. 43
  anti-BSA IgG response: not very effective

B1: Polymeric OVA: OVA polymerized to itself by glutaraldehyde, size fractionated (protein, UniProt P01012 2-386, looked up)
Ovalbumin: GSIGAASMEFCFDVFKELKVHHANENIFYCPIAIMSALAMVYLGAKDSTRTQINKVVRFDKLPGFGDSIEAQCGTSVNVHSSLRDILNQITKPNDVYSFSLASRLYAEERYPILPEYLQCVKELYRGGLEPINFQTAADQARELINSWVESQTNGIIRNVLQPSSVDSQTAMVLVNAIVFKGLWEKAFKDEDTQAMPFRVTEQESKPVQMMYQIGLFRVASMASEKMKILELPFASGTMSMLVLLPDEVSGLEQLESIINFEKLTEWTSSNVMEERKIKVYLPRMKMEEKYNLTSVLMAMGITDVFSSSANLSGISSAESLKISQAVHAAHAEINEAGREVVGSAEAGVDAASVSEEFRADHPFLFCIKHIATNAVLFFGRCVSP
modifications: glutaraldehyde self-polymerized
notes: OVA polymerized to itself by glutaraldehyde, size fractionated
CAF1/J mice
  IgM and IgG anti-protein responses: considerable
